Source: PMC3906007, “Discovery of a Small Molecule Agonist of Phosphatidylinositol 3-Kinase p110α That Reactivates Latent HIV-1” (PLoS ONE, 2014)

Columns and labels:
[1] = system: latent HIV-1 in J89GFP cells; assay: Latent HIV-1 reactivation in J89GFP cells (EGFP positive cells, flow cytometry); type: cell-based; settings: J89GFP
Protocol: Three different cell lines of HIV-1 latency were used in this study. These included J89GFP, U1 and ACH-2 cells. The J89GFP cells were a kind gift from Dr. David Levy. The ACH-2 and U1 cells were obtained through the AIDS Research and Reference Reagent Program, Division of AIDS, NIAID, NIH: Dr. Thomas Folks contributor [19]–[21]. Reactivation of latent HIV-1 in the J89GFP cells was measured by quantifying the percentage of EGFP positive cells using a BD FACScan flow cytometer with BD FACSDiva software (BD Biosciences, CA), as described previously. Reactivation of latent HIV-1 in the ACH-2 and U 1 cells was assessed by quantitative analysis of initiated and elongated HIV-1 transcripts, as described previously. All 3 cell lines were maintained in RMPI 1640 medium supplemented with 10% FBS, 0.3 mg/mL L-glutamine, 100 U/mL penicillin, and 100 µg/mL streptomycin at 37°C in humidified air with 5% CO2.
To identify novel activators of latent HIV-1 expression, we screened 640 pure natural products from the TimTec Natural Compound Library at a concentration of 10 ng/mL for 24 hrs in a Jurkat cell (J89GFP) model of latency for their cytotoxicity and ability to reactivate HIV-1 expression. J89GFP cells contain a stably integrated, full-length HIV-1 provirus with an enhanced GFP (EGFP) reporter incorporated into the viral genome. The viral genome in these cells is transcriptionally silent. However, upon stimulation viral transcription is activated and viral expression can be measured by EGFP production. […].

[2] = system: T cell; parameters: method as in PMID 22732922; settings: cited from earlier work
[3] = Cytotoxicity (MTT or CellTiter 96), Jurkat; type: cell-based; settings: human, Jurkat cells; 24 hour incubation; mean ± SD, 3 replicates
Protocol: (§1) Following a 24 hour incubation period, cell viability was measured using either the MTT (Roche Applied Science, Indianapolis, IN) or CellTiter 96 proliferation (Promega, WI) assay.

[4] = Cytotoxicity (MTT or CellTiter 96), HeLa; type: cell-based; settings: human, HeLa cells; 24 hour incubation; mean ± SD, 3 replicates
Protocol: as §1

[5] = Cytotoxicity (MTT or CellTiter 96), 293T; type: cell-based; settings: human, 293T cells; 24 hour incubation; mean ± SD, 3 replicates
Protocol: as §1

[6] = Cytotoxicity (MTT or CellTiter 96), CD8+-depleted MNC; type: cell-based; settings: human, CD8+-depleted mononuclear cells (MNC) from whole blood; 24 hour incubation; mean of 2 replicates
Protocol: as §1
(§2) CD8+T-cells were depleted from whole blood using RosetteSep Human CD8 Depletion Cocktail (StemCell Technologies, Vancouver, BC) according to manufacturer's instructions. 2×10^6 CD4^+ MNC cells were seeded in triplicate per treatment in 48-well plates and allowed to rest overnight. All wells were maintained in 81 nM efavirenz. […] Activation controls were treated with CD3/CD28 Dynabeads (Life Technologies, Grand Island, NY). After 7 days of incubation, supernatants from triplicate wells were pooled, centrifuged (500 g×5 min), and stored at −80°C. HIV-1 RNA levels in supernatants were determined using the COBAS® AmpliPrep/COBAS® TaqMan® HIV-1 Test, v2.0 (Roche, Indianapolis, IN).

[7] = system: latent HIV-1 in CD8+-depleted MNC; type: cell-based; settings: across all four donors; 0.5 or 2 µM
Text: Healthy HIV-1 uninfected blood donors and HIV-1-infected donors on suppressive cART with plasma HIV-1 RNA less than 50 copies/mL for >2 year provided written informed consent and underwent a large volume phlebotomy (100–200 mLs). The protocol for blood donation was approved by the Institutional Review Board of the University of Pittsburgh (IRB #PRO10070203).
as §2, with “overnight.” for “overnight. All wells were maintained in 81 nM efavirenz.”

[8] = system: PI3K p110δ RNA; assay: PI3K isoform RNA transcript levels in J89GFP cells, p110δ; type: cell-based; settings: 5 µM
[9] = system: HIV-1 RNA expression in resting CD4+ T cells; settings: single 400 mg dose; 8 HIV-infected patients on suppressive cART; cited from earlier work
[10] = parameters: method as in PMID 20936324; settings: phase II clinical trial, ovarian cancer; cited from earlier work

CC(=O)O[C@@]12C[C@@H](C)[C@@]3(O)[C@@H](C=C(CO)C[C@]4(O)C(=O)C(C)=C[C@@H]34)[C@@H]1C2(C)C [prostratin, reference compound]
Latent HIV-1 reactivation activity in presence of PI3K inhibitor wortmannin ([1]; 20 nM wortmannin): remained unaffected | Latent HIV-1 reactivation activity in presence of Akt Inhibitor IV ([1]; 500 nM Akt Inhibitor IV): remained unaffected | Latent HIV-1 reactivation activity in presence of PKC inhibitor Gö6983 ([1]; 500 nM Go6983): attenuated | Latent HIV-1 reactivation activity in presence of JNK inhibitor SP600125 ([1]; 1 µM SP00125): remained unaffected | Latent HIV-1 reactivation activity in presence of NFAT/calcineurin inhibitor cyclosporin A ([1]; 1 µM cyclosporin A): remained unaffected | Global T cell activation [2]: induces global T cell activation

O=C(CCCCCCC(=O)Nc1ccccc1)NO [SAHA, vorinostat, reference compound]
CC50 at 24 h [3]: 10 ± 0.1 µM | CC50 at 24 h [4]: 11.3 ± 0.3 µM | CC50 at 24 h [5]: 14.1 ± 0.2 µM | CC50 at 24 h [6]: 0.7 µM | Capacity to increase HIV-1 expression in the CD8+-depleted MNC [7]: very limited capacity | Effect on PI3K p110δ RNA transcript levels / gene expression [8]: significantly up-regulate | HIV-1 RNA expression in resting CD4+ T cells [9]: induced an increase in HIV-1 RNA expression

CCC/C=C/C=C/C(=O)O[C@H]1/C(=C/C(=O)OC)C[C@H]2C[C@H]([C@@H](C)O)OC(=O)C[C@H](O)C[C@@H]3C[C@H](OC(C)=O)C(C)(C)[C@](O)(C[C@@H]4C/C(=C/C(=O)OC)C[C@H](/C=C/C(C)(C)[C@]1(O)O2)O4)O3 [bryostatin]
Adverse event in study participants [10]: severe myalgia in all study participants
